Patent publication US10301306B2, “Substituted dihydro-1H-pyrrolo[3,2-c]pyridin-4(5H)-ones as RIPK3 inhibitors” (BRISTOL-MYERS SQUIBB COMPANY, priority 2014, dated 2019)

Target: RIPK3 (Homo sapiens (Human), UniProt Q9Y572)
Test: RIPK3 HTRF Kinase Assay
Type: binding
Settings: RIPK3 1 nM; HTRF probe 23 nM; 60 min at room temperature; read-out: IC50 for Inhibition of RIPK3

Sequence of RIPK3 (Q9Y572 whole entry, species assumed): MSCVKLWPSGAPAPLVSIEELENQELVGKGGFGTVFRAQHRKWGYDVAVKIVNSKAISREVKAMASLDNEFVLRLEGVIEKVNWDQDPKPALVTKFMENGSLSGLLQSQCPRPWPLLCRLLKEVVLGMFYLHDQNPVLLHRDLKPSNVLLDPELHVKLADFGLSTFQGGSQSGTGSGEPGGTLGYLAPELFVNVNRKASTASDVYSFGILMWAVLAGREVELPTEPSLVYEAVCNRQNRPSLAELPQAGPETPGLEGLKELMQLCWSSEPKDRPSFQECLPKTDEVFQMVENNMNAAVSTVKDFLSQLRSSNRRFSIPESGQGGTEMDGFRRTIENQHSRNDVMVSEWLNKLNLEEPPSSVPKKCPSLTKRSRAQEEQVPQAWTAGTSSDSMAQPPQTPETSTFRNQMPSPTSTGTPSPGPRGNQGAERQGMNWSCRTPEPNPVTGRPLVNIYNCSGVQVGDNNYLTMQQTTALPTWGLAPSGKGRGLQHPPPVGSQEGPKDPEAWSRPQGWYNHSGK

SMILES | IC50 [nM]
COc1ccc(Cn2c3c(c(-c4ccc(F)cc4)c2-c2ccncc2)C(=O)NCC3)cc1 [Example 38] | < 30
O=C1NCCc2c1c(-c1ccc(F)cc1)c(-c1ccncc1)n2Cc1ccc(OC(F)(F)F)c(Cl)c1 [Example 40] | 100 to 15000
O=C1NCCc2c1c(-c1ccc(F)cc1)c(-c1ccncc1)n2Cc1cc(F)cc(C(F)(F)F)c1 [Example 41] | < 30
CS(=O)(=O)c1ccc(Cn2c3c(c(-c4ccc(F)cc4)c2-c2ccncc2)C(=O)NCC3)cc1 [Example 42] | 100 to 15000
O=C1NCCc2c1c(-c1ccc(F)cc1)c(-c1ccncc1)n2Cc1ccc(C(F)(F)F)cc1F [Example 43] | < 30
O=C1NCCc2c1c(-c1ccc(F)cc1)c(-c1ccncc1)n2Cc1ccc(F)cc1 [Example 44] | < 30
Cc1cc(Cn2c3c(c(-c4ccc(F)cc4)c2-c2ccncc2)C(=O)NCC3)ccc1F [Example 46] | < 30
O=C1NCCc2c1c(-c1ccc(F)cc1)c(-c1ccncc1)n2Cc1nnc(C2CC2)s1 [Example 47] | 100 to 15000
Cc1nc(-c2ccc(Cn3c4c(c(-c5ccc(F)cc5)c3-c3ccncc3)C(=O)NCC4)c(F)c2)no1 [Example 48] | < 30
N#CCn1c2c(c(-c3ccc(F)cc3)c1-c1ccncc1)C(=O)NCC2 [Example 49] | 100 to 15000
Cc1noc(C)c1Cn1c2c(c(-c3ccc(F)cc3)c1-c1ccncc1)C(=O)NCC2 [Example 50] | 100 to 15000
N#Cc1ccc(Cn2c3c(c(-c4ccc(F)cc4)c2-c2ccncc2)C(=O)NCC3)c(F)c1 [Example 51] | < 30
O=C1NCCc2c1c(-c1ccc(F)cc1)c(-c1ccncc1)n2Cc1ccc(C2CC2)cc1 [Example 52] | 31 to 100
O=C1NCCc2c1c(-c1ccc(F)cc1)c(-c1ccncc1)n2Cc1ccc(C(F)(F)F)cc1C(F)(F)F [Example 53] | < 30
N#Cc1ccc(Cn2c3c(c(-c4ccc(F)cc4)c2-c2ccncc2)C(=O)NCC3)nc1 [Example 54] | 31 to 100
O=C1NCCc2c1c(-c1ccc(F)cc1)c(-c1ccncc1)n2Cc1ccc(F)cc1C(F)(F)F [Example 55] | < 30
O=C1NCCc2c1c(-c1ccc(F)cc1)c(-c1ccncc1)n2Cc1nnc(C2CC2)o1 [Example 56] | 100 to 15000
CC(C)Cn1c2c(c(-c3ccc(F)cc3)c1-c1ccncc1)C(=O)NCC2 [Example 58] | 31 to 100
N#CCCCn1c2c(c(-c3ccc(F)cc3)c1-c1ccncc1)C(=O)NCC2 [Example 59] | 100 to 15000
Cc1nc(Cn2c3c(c(-c4ccc(F)cc4)c2-c2ccncc2)C(=O)NCC3)cs1 [Example 60] | 31 to 100
CC(C)(C)Cn1c2c(c(-c3ccc(F)cc3)c1-c1ccncc1)C(=O)NCC2 [Example 61] | 100 to 15000
CCn1c2c(c(-c3ccc(F)cc3)c1-c1ccncc1)C(=O)NCC2 [Example 62] | 100 to 15000
CCC(C)n1c2c(c(-c3ccc(F)cc3)c1-c1ccncc1)C(=O)NCC2 (stereo not drawn) [Example 63] | 100 to 15000
O=C1NCCc2c1c(-c1ccc(F)cc1)c(-c1ccncc1)n2Cc1ccc(F)cc1F [Example 64] | < 30
Cc1cc(Cn2c3c(c(-c4ccc(F)cc4)c2-c2ccncc2)C(=O)NCC3)n(C)n1 [Example 65] | < 30

SMILES | IC50 [nM]
O=C1NCCc2c1c(-c1ccc(F)cc1)c(-c1ccncc1)n2Cc1ccncc1 [Example 66] | < 30
COc1cc(C(F)(F)F)ccc1Cn1c2c(c(-c3ccc(F)cc3)c1-c1ccncc1)C(=O)NCC2 [Example 67] | 31 to 100
N#Cc1ccccc1Cn1c2c(c(-c3ccc(F)cc3)c1-c1ccncc1)C(=O)NCC2 [Example 68] | < 30
O=C1NCCc2c1c(-c1ccc(F)cc1)c(-c1ccncc1)n2CCCO [Example 69] | 31 to 100
O=C1NCCc2c1c(-c1ccc(F)cc1)c(-c1ccncc1)n2CC(=O)N1CCCC1 [Example 70] | 31 to 100
O=C1NCCc2c1c(-c1ccc(F)cc1)c(-c1ccncc1)n2Cc1c(F)cc(F)cc1F [Example 71] | < 30
O=C1NCCc2c1c(-c1ccc(F)cc1)c(-c1ccncc1)n2Cc1ccncn1 [Example 72] | 100 to 15000
O=C1NCCc2c1c(-c1ccc(F)cc1)c(-c1ccncc1)n2Cc1c(F)cccc1C(F)(F)F [Example 73] | < 30
O=C1NCCc2c1c(-c1ccc(F)cc1)c(-c1ccncc1)n2Cc1ccc(Cl)cc1F [Example 74] | < 30
CC(C)(C)CCn1c2c(c(-c3ccc(F)cc3)c1-c1ccncc1)C(=O)NCC2 [Example 75] | < 30
O=C1NCCc2c1c(-c1ccc(F)cc1)c(-c1ccncc1)n2Cc1ccccn1 [Example 76] | 100 to 15000
N#Cc1cccc(F)c1Cn1c2c(c(-c3ccc(F)cc3)c1-c1ccncc1)C(=O)NCC2 [Example 77] | < 30
O=C1NCCc2c1c(-c1ccc(F)cc1)c(-c1ccncc1)n2CC1CCCC1 [Example 78] | < 30
Cc1cc(Cn2c3c(c(-c4ccc(F)cc4)c2-c2ccncc2)C(=O)NCC3)no1 [Example 79] | 31 to 100
Cn1ccnc1Cn1c2c(c(-c3ccc(F)cc3)c1-c1ccncc1)C(=O)NCC2 [Example 80] | 100 to 15000
Cc1nc(Cn2c3c(c(-c4ccc(F)cc4)c2-c2ccncc2)C(=O)NCC3)no1 [Example 81] | 31 to 100
O=C1NCCc2c1c(-c1ccc(F)cc1)c(-c1ccncc1)n2CCO [Example 82] | 100 to 15000
CC(C)NC(=O)Cn1c2c(c(-c3ccc(F)cc3)c1-c1ccncc1)C(=O)NCC2 [Example 83] | 100 to 15000
N#Cc1cc(F)c(Cn2c3c(c(-c4ccc(F)cc4)c2-c2ccncc2)C(=O)NCC3)c(F)c1 [Example 84] | < 30
O=C(Nc1cc(-c2c(-c3ccc(F)cc3)c3c(n2CC2CCOCC2)CCNC3=O)ccn1)c1ccncc1 [Example 85] | 100 to 15000
O=C(Nc1cc(-c2c(-c3ccc(F)cc3)c3c(n2CC2CCOCC2)CCNC3=O)ccn1)c1ccccc1 [Example 86] | 100 to 15000
O=C1NCCc2c1c(-c1ccc(F)cc1)c(-c1ccnc(NC(=O)C3CC3)c1)n2CC1CCOCC1 [Example 87] | 31 to 100
CC(C)C(=O)Nc1cc(-c2c(-c3ccc(F)cc3)c3c(n2CC2CCOCC2)CCNC3=O)ccn1 [Example 88] | 100 to 15000
COc1ccc(C(=O)Nc2cc(-c3c(-c4ccc(F)cc4)c4c(n3CC3CCOCC3)CCNC4=O)ccn2)cc1 [Example 89] | 100 to 15000
CCC(=O)Nc1cc(-c2c(-c3ccc(F)cc3)c3c(n2CC2CCOCC2)CCNC3=O)ccn1 [Example 90] | 100 to 15000

SMILES | IC50 [nM]
CC(C)OC(=O)Nc1cc(-c2c(-c3ccc(F)cc3)c3c(n2CC2CCOCC2)CCNC3=O)ccn1 [Example 91] | 100 to 15000
CS(=O)(=O)Nc1cc(-c2c(-c3ccc(F)cc3)c3c(n2CC2CCOCC2)CCNC3=O)ccn1 [Example 92] | 100 to 15000
CC(C)CC(=O)Nc1cc(-c2c(-c3ccc(F)cc3)c3c(n2CC2CCOCC2)CCNC3=O)ccn1 [Example 93] | 100 to 15000
CCCC(=O)Nc1cc(-c2c(-c3ccc(F)cc3)c3c(n2CC2CCOCC2)CCNC3=O)ccn1 [Example 94] | 100 to 15000
CCOC(=O)Nc1cc(-c2c(-c3ccc(F)cc3)c3c(n2CC2CCOCC2)CCNC3=O)ccn1 [Example 95] | 31 to 100
CCNC(=O)Nc1cc(-c2c(-c3ccc(F)cc3)c3c(n2CC2CCOCC2)CCNC3=O)ccn1 [Example 97] | 100 to 15000
CC(=O)Nc1cc(-c2c(-c3ccc(F)cc3)c3c(n2Cc2ccc(F)c(C#N)c2)CCNC3=O)ccn1 [Example 99] | 31 to 100
CC(=O)Nc1cc(-c2c(-c3ccc(F)cc3)c3c(n2Cc2ccc(F)cc2C#N)CCNC3=O)ccn1 [Example 100] | < 30
CC(=O)Nc1cc(-c2c(-c3ccc(F)cc3)c3c(n2Cc2ccc(C(F)(F)F)cc2F)CCNC3=O)ccn1 [Example 101] | < 30
CC(=O)Nc1cc(-c2c(-c3ccc(F)cc3)c3c(n2Cc2ccc(C(F)(F)F)cc2)CCNC3=O)ccn1 [Example 102] | 100 to 15000
Cc1ccc(-c2c3c(n(CC4CCOCC4)c2-c2ccncc2)CCNC3=O)c(C)c1 [Example 103] | 100 to 15000
COc1ccc(-c2c3c(n(CC4CCOCC4)c2-c2ccncc2)CCNC3=O)cc1 [Example 104] | 100 to 15000
O=C1NCCc2c1c(-c1cccc(C(F)(F)F)c1)c(-c1ccncc1)n2CC1CCOCC1 [Example 105] | 100 to 15000
CC(=O)Nc1cccc(-c2c3c(n(CC4CCOCC4)c2-c2ccncc2)CCNC3=O)c1 [Example 106] | 100 to 15000
COc1ccc(-c2c3c(n(CC4CCOCC4)c2-c2ccncc2)CCNC3=O)cn1 [Example 107] | 100 to 15000
CN(C)c1cccc(-c2c3c(n(CC4CCOCC4)c2-c2ccncc2)CCNC3=O)c1 [Example 109] | 100 to 15000
O=C1NCCc2c1c(-c1cccc(OC(F)(F)F)c1)c(-c1ccncc1)n2CC1CCOCC1 [Example 110] | 100 to 15000
O=C1NCCc2c1c(-c1cnc3ccccc3c1)c(-c1ccncc1)n2CC1CCOCC1 [Example 111] | 100 to 15000
O=C1NCCc2c1c(-c1cccc3ccncc13)c(-c1ccncc1)n2CC1CCOCC1 [Example 112] | 100 to 15000
COc1ccc(-c2c3c(n(Cc4ccc(F)cc4C#N)c2-c2ccncc2)CCNC3=O)cc1OC [Example 113] | 100 to 15000
N#Cc1cc(F)ccc1Cn1c2c(c(-c3cccc(OC(F)(F)F)c3)c1-c1ccncc1)C(=O)NCC2 [Example 114] | 31 to 100
N#Cc1cc(F)ccc1Cn1c2c(c(-c3ccc(F)c(F)c3)c1-c1ccncc1)C(=O)NCC2 [Example 115] | < 30
N#Cc1cc(F)ccc1Cn1c2c(c(-c3ccc4ncccc4c3)c1-c1ccncc1)C(=O)NCC2 [Example 116] | 100 to 15000
COc1cc(F)cc(-c2c3c(n(Cc4ccc(F)cc4C#N)c2-c2ccncc2)CCNC3=O)c1 [Example 117] | 31 to 100
Cn1ccc2cc(-c3c4c(n(Cc5ccc(F)cc5C#N)c3-c3ccncc3)CCNC4=O)ccc21 [Example 118] | 31 to 100

Same assay, conditions: read-out: IC50 for Inhibition of RIPK3

SMILES | IC50 [nM]
Cc1ccc(Cn2c3c(c(-c4ccc(F)cc4)c2-c2ccncc2)C(=O)NCC3)cc1 [Example 45] | 31 to 100
O=C1NCCc2c1c(-c1cccnc1)c(-c1ccncc1)n2CC1CCOCC1 [Example 108] | 100 to 15000
N#Cc1cc(F)ccc1Cn1c2c(c(-c3cccnc3)c1-c1ccncc1)C(=O)NCC2 [Example 119] | 31 to 100
